The values below come from PubChem BioAssay (NCI).

Common to all, as to test: NCI-60 cell line screen, 48 h
Test [1] concerns MDA-N.
Test [2] has as its system NCI-H522 lung.
Test [3] has as its system HCT-116 colon.
In test [4] the test system is M14 melanoma.
Test [5] relates to BT-549 breast.
For test [6], the system named is SF-295 CNS.
Test [7] relates to OVCAR-8 ovarian.

Structures are written as SMILES.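 Cells were grown in 96-well plates and exposed to each compound for 48 hours at five concentrations; endpoints were interpolated linearly between bracketing concentrations, or set to the highest concentration if not reached. TGI marks complete inhibition of growth.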 Bounds are passed on as bounds.

Take `NC(CC(O)(c1ccccc1)c1ccccc1)c1ccccc1S` (stereo not given): the TGI turned out to be 30.4 µM in test [1]; 30.3 µM in test [2]; 26.2 µM in test [3]; 29 µM in test [4]; 27.8 µM in test [5]; 31.4 µM in test [6].

Regarding `COP(=O)(O)C(N)Cc1c[nH]c2ccccc12` (stereo not given), the TGI in test [1], in test [2], in test [3], in test [4], in test [7] and in test [6] was greater than 100 µM throughout.

In the case of `COC1(c2cccs2)c2ccccc2C(OC)(c2cccs2)c2ccccc21` (stereo not given), the TGI in test [1], in test [2], in test [3], in test [4], in test [5] and in test [7] was greater than 100 µM each time. The molecule also registered a TGI in test [6] greater than 100 µM.

Take `Cc1cc(N2CCCC2)c([N+](=O)[O-])cc1[N+](=O)[O-]`: the TGI in test [1], in test [2], in test [3], in test [4], in test [5] and in test [7] was greater than 100 µM in each case. In test [6], this molecule came in with a TGI greater than 100 µM.

As to `COC(=O)C1=CON2C3CC4CC(C3)CC(C4)C12C` (stereo not given), the TGI in test [1], in test [2], in test [3], in test [4], in test [5] and in test [7] was greater than 100 µM each time. In test [6], this molecule yielded a TGI greater than 100 µM.

`O=[N+]([O-])c1ccc(N2N=C(c3ccc4ccccc4c3O)CC2c2ccc(Cl)cc2)c([N+](=O)[O-])c1` (stereo not given): the TGI in test [1] was 30.8 µM; in test [2], 62.4 µM; in test [3], greater than 100 µM; in test [4] it was greater than 100 µM; in test [5], greater than 100 µM; in test [7], greater than 100 µM. The molecule also gave a TGI in test [6] greater than 100 µM.

Turning to `c1csc(-c2ccsc2-c2ccsc2)c1`, the TGI in test [1], in test [3], in test [4], in test [5], in test [7] and in test [6] was greater than 100 µM throughout.

Consider `COc1cc2c(cc1OC)[C@@](C)(C(O)C(O)C(C)(C)O)NCC2` (stereo not given in full), for which the TGI in test [1], in test [2], in test [3], in test [4], in test [5] and in test [7] was greater than 100 µM each time. In test [6], this molecule returned a TGI greater than 100 µM.

As for `CCCCCN(CCCCC)CC(C)(C)C(O)c1ccc(OC)c2ccccc12` (stereo not given), the TGI in test [2] is 20.3 µM; in test [3] it was 61.9 µM; in test [4], 21.7 µM; in test [7], 22.9 µM; in test [6] it was 29.7 µM.

Consider `CN[C@@H](C)[C@@H](O)c1ccccc1`, for which the TGI is greater than 100 µM in test [1]; greater than 10 µM in test [2]; greater than 100 µM in test [3]; greater than 100 µM in test [4]; greater than 100 µM in test [7]; greater than 100 µM in test [6].

On to `CC12CCC(C(=Nc3cc(C(F)(F)F)cc(C(F)(F)F)c3)C1=O)C2(C)C` (stereo not given), for which the TGI in test [3] is 99 µM; in test [4], greater than 100 µM; in test [5] it was greater than 100 µM; in test [7], greater than 100 µM; in test [6], greater than 100 µM.

With `Nc1nc(=O)n(C2OC(CO)C(O)C2O)c2ncc(-c3ccc(-c4ccccc4)cc3)nc12` (stereo not given), the TGI in test [1], in test [2], in test [3], in test [5], in test [7] and in test [6] was greater than 100 µM each time.

Consider `N[C@H](CCC(=O)NCP(=O)(O)O)C(=O)O`, for which the TGI in test [1], in test [2], in test [3], in test [5], in test [7] and in test [6] was greater than 100 µM in each case.

Consider `NC(=Nc1ccccc1)c1ccccc1N`, for which the TGI in test [1], in test [3], in test [4], in test [5], in test [7] and in test [6] was greater than 100 µM throughout.

For the molecule `CC(=O)Oc1cc(OC(C)=O)c2c(C)cc(=O)oc2c1`, the TGI in test [1], in test [3], in test [4], in test [7] and in test [6] was greater than 100 µM throughout.

In the case of `COc1ccc(N=C2C(=Nc3ccc(OC)cc3)N(c3ccc(N(C)C)cc3)C(=S)N2c2ccc(OC)cc2)cc1`, the TGI is greater than 100 µM in test [1]; greater than 100 µM in test [2]; greater than 100 µM in test [3]; greater than 100 µM in test [4]; greater than 100 µM in test [5]; greater than 52 µM in test [7].

On to `O=C(O)CCc1ccc2c(c1)CC1(Cc3ccccc3C1)C2`, for which the TGI in test [1], in test [2], in test [3], in test [4], in test [7] and in test [6] was greater than 100 µM in each case.

Turning to `Cc1cc(O)cc(O)c1C(=O)O[C@]1(C)C(=O)C=C2C=C(/C=C/C(=O)O)OC=C2C1=O`, the TGI in test [1], in test [3], in test [4], in test [7] and in test [6] was greater than 100 µM in each case.

Consider `CC1=CCC[C@H]2[C@](C)(CC3=CC(=O)C(Sc4ccccc4)=CC3=O)[C@@H](C)CC[C@]12C`, for which the TGI in test [1] worked out at 32.4 µM; in test [3], 30.3 µM; in test [4] it was 33.7 µM; in test [5], 34.1 µM; in test [7], 26.4 µM; in test [6] it was 32.9 µM.

Turning to `CC(=O)OCCCCn1cc(Cn2ccc(=O)n(Cc3cn(CCCCOC(C)=O)nn3)c2=O)nn1`, the TGI in test [1], in test [3], in test [4], in test [5], in test [7] and in test [6] was greater than 100 µM in each case.

As for `CCOc1ccc(/C=C2\NC(=S)N(/C=C3\C(=O)Oc4ccccc4C3=O)C2=O)cc1`, the TGI in test [2] was 51.2 µM; in test [3], 39.9 µM; in test [4] it was 92.4 µM; in test [5], 54.9 µM; in test [7] it was 36.7 µM; in test [6] it was 49.8 µM.

For `CCC(=O)/C(=C\I)c1ccccc1`, the TGI in test [1] was 11.2 µM; in test [3] it was 3.3 µM; in test [4], 4.72 µM; in test [5] it was 3.3 µM; in test [7] it was 3.68 µM; in test [6], 33.4 µM.

As for `O=C1/C(=C/c2ccccc2)NC(=S)N1CN1CCCCC1`, the TGI in test [1], in test [3], in test [4], in test [7] and in test [6] was greater than 100 µM throughout.

Turning to `COc1ccc2c(c1)CCN1CCCc3ccccc3C21` (stereo not given), the TGI was greater than 100 µM in test [2]; 92.8 µM in test [3]; 37.9 µM in test [4]; 86.6 µM in test [5]; greater than 100 µM in test [7]; greater than 100 µM in test [6].

Consider `CCOC(=O)CCC(NC(=O)Cc1ccc(Oc2nc3ccccc3nc2-c2ccccc2)cc1)C(=O)OCC` (stereo not given), for which the TGI in test [1], in test [2], in test [3], in test [4], in test [5] and in test [6] was greater than 100 µM in each case.

For `CCCCCCCCCCCCCCCCCC(=O)Nc1ccn(C2CCC(COP(=O)(O)O)O2)c(=O)n1` (stereo not given), the TGI in test [2], in test [3], in test [4], in test [5], in test [7] and in test [6] was greater than 100 µM in each case.

As for `O=C1C2=C(SCCS2)C(=O)c2c(Sc3ccc(Cl)cc3)c(Sc3ccc(Cl)cc3)c(Sc3ccc(Cl)cc3)c(Sc3ccc(Cl)cc3)c21`, the TGI in test [1], in test [3], in test [4], in test [5], in test [7] and in test [6] was greater than 100 µM throughout.

On to `COC(=O)c1ccccc1C1=C([N+](=O)[O-])C(c2ccccc2)C(C#N)=C(N)O1` (stereo not given), for which the TGI is greater than 100 µM in test [1]; 30.8 µM in test [2]; greater than 100 µM in test [3]; greater than 100 µM in test [4]; greater than 100 µM in test [7]; greater than 100 µM in test [6].

Take `CC(C)(C)OC(=O)N1[C@@H]2Cc3ccc(N)cc3[C@@]1(C)c1ccccc12`: the TGI in test [1] was 45.3 µM; in test [2], 38.4 µM; in test [3] it was 37.1 µM; in test [4], 51.8 µM; in test [5] it was 43.4 µM; in test [6] it was greater than 100 µM.

For the molecule `Cc1c2ccccc2c(C)n2c1nc1ccccc12`, the TGI in test [1] is 25 µM; in test [3] it was greater than 100 µM; in test [4], 24.1 µM; in test [5], 35.3 µM; in test [7], greater than 100 µM; in test [6] it was 25.3 µM.
